Measured values from ChEMBL document CHEMBL1150233, “Circumdatin G, a new alkaloid from the fungus Aspergillus ochraceus” (J Nat Prod, 2001).

Experiment: Inhibition of HCV protease
Design: species or system Hepacivirus hominis

Structure (SMILES)	IC50 [µM]
CCCC(=O)c1cc2c(c(O)c1C)C(=O)C(=O)c1c(O)cccc1-2	7.7
CC1Cc2cccc(O)c2C(=O)O1 (stereo not drawn) [MELLEIN]	35
O=C1C=C2C(=CCOC2O)O1 (stereo not drawn) [PATULIN]	24.7
